In one assay the target is T1, M2 muscarinic receptor (Homo sapiens, UniProt P08172).
T1 construct: membranes
T1 sequence (P08172 1-466): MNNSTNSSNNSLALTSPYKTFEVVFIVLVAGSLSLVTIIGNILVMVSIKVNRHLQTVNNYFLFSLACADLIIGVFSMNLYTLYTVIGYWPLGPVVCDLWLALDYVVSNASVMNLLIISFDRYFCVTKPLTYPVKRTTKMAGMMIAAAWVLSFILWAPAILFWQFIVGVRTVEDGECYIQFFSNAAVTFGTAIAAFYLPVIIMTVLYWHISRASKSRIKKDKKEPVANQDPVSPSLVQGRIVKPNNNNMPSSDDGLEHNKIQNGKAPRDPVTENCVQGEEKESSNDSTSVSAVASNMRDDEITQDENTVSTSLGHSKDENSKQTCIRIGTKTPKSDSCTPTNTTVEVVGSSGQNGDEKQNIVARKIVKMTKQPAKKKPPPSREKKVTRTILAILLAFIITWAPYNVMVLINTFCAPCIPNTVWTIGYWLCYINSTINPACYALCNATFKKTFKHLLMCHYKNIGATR
Nature of the assay: [3H]NMS competition binding, membranes from CHO cells expressing M2. The protocol: Cells were cultured as described previously by Randakova et al.[33]. […] The medium was supplemented with 5 mM butyrate for the last 24 h of culture to increase receptor expression. Cells were washed with (phosphate-buffered saline (PBS), mechanically harvested by scraper and centrifugated 1000 × g for 5 min. Cell pellets were kept at − 80 °C.
Membranes were prepared as described previously by Randakova et al.[33]. Cells harvested from twenty 100 mm petri dishes (CHO) or 30 ml of cell suspension (Sf9) were suspended in 20 ml of ice-cold incubation medium (100 mM NaCl, 20 mM Na-HEPES, 10 mM MgCl2, pH 7.4) supplemented with 10 mM EDTA and homogenized on ice by two 30‐s strokes using a Polytron homogenizer (Ultra-Turrax; Janke & Kunkel GmbH & Co. KG, IKA-Labortechnik, Staufen, Germany) with a 30 s pause between strokes. Cell homogenates were centrifuged for 5 min at 1000×g to remove whole cells and cell nuclei. The resulting supernatants were centrifuged for 30 min at 30,000×g. Pellets were suspended in a fresh incubation medium, incubated on ice for 30 min, and centrifuged again. The resulting membrane pellets were kept at − 80 °C until assayed within 10 weeks.
Non-specific binding was determined in the presence of 10 μM unlabelled atropine. Incubations were terminated by filtration through filtration plates multiscreen 96 well Harvest (Merck Millipore) using a Brandel cell harvester (Brandel, Gaithersburg, MD, USA). Filtration plates were dried in a microwave oven, and then 40 μl of liquid scintillator Rotiscint eco plus (Roth) was added. The filtration plates were counted in the Microbeta scintillation counter (PerkinElmer). […] The inhibition constant KI was calculated according to Eq. (2).
Inhibition constants KI were calculated according to Eq. (2).2 KI=IC50/1+D/KD where IC50 is calculated according to Eq.

The target in a further assay is T2, M1 receptor (Homo sapiens, UniProt P11229).
T2 sequence (P11229 1-460): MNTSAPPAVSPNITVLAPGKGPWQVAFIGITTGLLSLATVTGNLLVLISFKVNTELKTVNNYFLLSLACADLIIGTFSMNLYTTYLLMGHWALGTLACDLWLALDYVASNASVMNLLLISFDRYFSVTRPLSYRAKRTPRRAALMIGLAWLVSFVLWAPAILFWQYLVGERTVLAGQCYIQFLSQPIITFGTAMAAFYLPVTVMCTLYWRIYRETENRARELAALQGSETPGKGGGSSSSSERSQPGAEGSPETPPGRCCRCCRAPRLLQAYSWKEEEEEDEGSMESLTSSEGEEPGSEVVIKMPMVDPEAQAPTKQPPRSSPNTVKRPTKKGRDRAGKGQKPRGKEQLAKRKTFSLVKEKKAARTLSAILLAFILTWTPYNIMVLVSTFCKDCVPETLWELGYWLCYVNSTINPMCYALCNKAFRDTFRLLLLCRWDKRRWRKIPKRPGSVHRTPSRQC
Set-up: expressed in transfected cells; method as in PMID 31910288. The note with it: CHO expressing M1; cited from earlier work.

The target of a further assay is M3 receptor (Homo sapiens, UniProt P20309). Set-up: expressed in transfected cells; method as in PMID 31910288. The following applies: CHO expressing M3; cited from earlier work.
For assay [1], the target named is individual subtypes of muscarinic receptors (M1–M5). Set-up: method as in PMID 31910288. The following applies: summary of Table 1 over subtypes; read-out: Affinity; cited from earlier work.
For assay [2], the system named is individual subtypes of muscarinic receptors (M1–M5). As to the kind of experiment: [3H]NMS competition binding, summary over subtypes. Set-up: species or system human. The following applies: summary of Table 1 over subtypes. On the procedure:
CHO cells stably transfected with the genes of individual subtypes of human muscarinic receptors (M1–M5, wild types) were purchased from Missouri S&T cDNA resource center (Rolla, MO, USA) (https://www.cdna.org/home.php?cat=177). Cells were cultured as described previously by Randakova et al.[33]. Cells were grown to confluence in 75 cm^2 flasks in Dulbecco’s modified Eagle’s medium DMEM (Thermo Fisher Scientific; LOT: 2556745) supplemented with 10% fetal bovine serum and geneticin in concentration 50 µg/ml at 37 °C in a humidified incubator containing 5% CO2. The medium was supplemented with 5 mM butyrate for the last 24 h of culture to increase receptor expression. Cells were washed with (phosphate-buffered saline (PBS), mechanically harvested by scraper and centrifugated 1000 × g for 5 min. Cell pellets were kept at − 80 °C.
Membranes were prepared as described previously by Randakova et al.[33]. […]
Non-specific binding was determined in the presence of 10 μM unlabelled atropine. […] The filtration plates were counted in the Microbeta scintillation counter (PerkinElmer). […] The inhibition constant KI was calculated according to Eq. (2). […]

SMILES strings stand for the structures. Where two headings read alike, the source gives them in different places.

Sequence of M3 receptor (P20309 whole entry): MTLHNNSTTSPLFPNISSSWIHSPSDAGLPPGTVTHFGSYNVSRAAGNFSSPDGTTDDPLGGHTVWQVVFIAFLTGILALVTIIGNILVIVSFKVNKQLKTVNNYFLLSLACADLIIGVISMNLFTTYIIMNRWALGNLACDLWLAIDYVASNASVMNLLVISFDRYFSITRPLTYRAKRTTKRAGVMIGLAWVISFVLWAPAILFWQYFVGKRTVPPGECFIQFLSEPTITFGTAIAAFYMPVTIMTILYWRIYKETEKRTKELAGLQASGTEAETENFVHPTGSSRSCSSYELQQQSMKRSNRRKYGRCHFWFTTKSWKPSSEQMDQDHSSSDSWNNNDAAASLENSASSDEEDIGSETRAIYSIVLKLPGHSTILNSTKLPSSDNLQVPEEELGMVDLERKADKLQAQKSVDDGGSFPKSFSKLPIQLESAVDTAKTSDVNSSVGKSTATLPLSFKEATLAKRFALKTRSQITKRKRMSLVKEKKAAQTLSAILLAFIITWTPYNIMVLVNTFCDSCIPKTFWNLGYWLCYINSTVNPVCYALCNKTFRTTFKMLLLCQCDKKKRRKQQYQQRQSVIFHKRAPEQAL

The molecule `c1csc(C[N+]23CCC(CC2)CC3)c1` [JB-8A] gave a Ki on M2 muscarinic receptor of 3.24 µM.
Consider `C[N+]1(Cc2cccs2)CCOCC1` [JB-12-2], for which, on M2 muscarinic receptor, the Ki was 17.4 µM.
As to `COC(=O)C1=CCCN(Cc2cccs2)C1` [JB-13-1], at M2 muscarinic receptor (M2, competition with [3H]NMS, mean ± SD, three experiments, read-out: Binding affinity, negative logarithm of Ki (converted)), the Ki was 23.4 µM.
Consider `C[N+]1(Cc2cccs2)CC=CCC1` (centres unmarked) [JR-6, 1-methyl-1-[(thiophen-2-yl)methyl]-1,2,3,6-tetra hydropyridin-1-ium], for which the IP production entry on M1 receptor is “weak IP production”; at M3 receptor, “marginal response”. In addition, the Ki in assay [1] is approximately 10 µM.
As to `C[N+]1(Cc2ccc(Cl)s2)CC=CCC1` (centres unmarked) [PN-152, 1-[(5-chlorothiophen-2-yl)methyl]-1-methyl-1,2,3,6-tetrahydropyridin-1-ium], in assay [2], the “Affinity, times higher than JR-6” value is “three to ten”. Further, the “Experimental binding affinity relative to JR-6” value on M2 muscarinic receptor (M2 (Table 1)) is listed as “ten-times higher”.
